Ends that are not written are not given here.
Experiments:
[1] = Peptide stability in mouse plasma; format: in vitro ADME; settings: 100 μg/mL, 37° C.; FIG. 3, 5, 14
Method: (§1) The stability of peptides was also tested in mouse and human plasma. Briefly, a certain amount of peptides and eucatropine powder (positive control) was accurately weighed. Test compounds were dissolved in 50% methanol-water solution and diluted to 20 mg/mL, and eucatropine was dissolved in dimethylsulfoxide (DMSO) and diluted to 10 mM, as a stock solution. Eucatropine stock solution was diluted to 0.2 mM with DMSO as a working solution. A stop reagent was prepared containing 200 ng/mL midazolam and tolbutamide in acetonitrile. A volume of 300 μL of stop solution was added to each well of a 96-well deep-well plate placed on ice beforehand.
For the stability studies, peptides and eucatropine were spiked into plasma respectively, mixed well, and then 100 μL of each mixture solution was transferred into the pre-cooled stop reagent as 0 time point sample. The remaining mixtures were incubated in a 37° C. water bath with shaking at 100 rpm (n=2). The final incubation concentration was […] for eucatropine and 100 μg/mL for all test compounds.
(§2) At desired time points, 100 μL of incubation mixture was transferred to the stop reagent to precipitate proteins. Samples were vortexed and centrifuged at RCF 5000×g for 10 minutes, and supernatant was transferred to a test plate. The samples were analyzed by LC-MS/MS.
(§3) Slope was calculated by plotting the natural logarithm of the percentage of remaining amount of test compounds and time, and T1/2 was calculated in accordance with the following formula.
For stability in mouse plasma, the incubation time was 0, 5, 15, 30 and 60 min for Peptide 1 and eucatropine; 0, 15, 30, 60, 120, 240 and 480 min for Peptide 12, Peptide 16 and Peptide 29.
In another stability study in mouse plasma, the incubation time was 0, 30, 60 and 120 min for Peptide 2 and eucatropine; 0, 30, 60, 120, 240 and 960 min for Peptide 52 and Peptide 54.
as §1, with “tested in rat, mouse and” for “tested in mouse and”
(§4) For the stability studies, peptides and eucatropine were spiked into plasma respectively, mixed well, and then 100 μL of each mixture solution was transferred into the pre-cooled stop reagent as 0 time point sample. The remaining mixtures were incubated in a 37° C. water bath with shaking at 100 rpm (n=2). The final incubation concentration was 1 μM for eucatropine and 100 μg/mL for all test compounds.
For stability in mouse plasma, the incubation time was 0, 15, 30, 60 and 120 min for Peptide 1 and eucatropine; 0, 15, 30, 60, 120, and 240 min for Peptide 31.

[2] = Peptide stability in rat plasma; format: in vitro ADME; settings: 100 μg/mL, 37° C.; FIG. 12, 13
Method: as §1, with “tested in rat, mouse and” for “tested in mouse and”
as §4, §2, §3
For stability in rat plasma, the incubation time was 0, 15, 30, 60 and 120 min for Peptide 1 and eucatropine, and 0, 15, 30, 60, 120, and 240 min for Peptide 12, Peptide 16, Peptide 29 and Peptide 31.
In another stability study in rat plasma, the incubation time was 0, 30, 60 120 and 240 min for Peptide 2, Peptide 52, Peptide 64 and eucatropine.

pancreatic islets = test: Glucose-stimulated insulin secretion (GSIS) of isolated islets; format: cell-based, rat; settings: 12.0 mM glucose; 10 μg/mL peptide or 100 nM GLP-1; 60 min; FIG. 8
Method: The pancreases were procured from male adult Sprague-Dawley (SD) rats. After 7 days acclimation, the animals were sacrificed by cervical dislocation and the entire pancreas was removed and digested with collagenase to isolate islets. After digestion, islets were maintained at 37° C. in RPMI 1640 (Carlsbad Calif., USA) pH 7.4, containing 10% (v/v) fetal calf serum, 1% penicillin/streptomycin, and 10 mM glucose in a humid atmosphere (5% CO2/95% O2), without the addition of any compound (control), or with the addition of 100 nM glucagon like peptide-1 (GLP-1); or 10 μg/mL Peptide 1, Peptide 12, or Peptide 16, as summarized in Table 4 below. Cultured islets were rinsed in Krebs-Ringer bicarbonate buffer (KRB), pH 7.4, previously gassed with a mixture of CO2/O2 (5/95%), and pre-incubated in 1.0 ml of KRB containing 0.5% (w/v) BSA and 1.5 mM glucose at 37° C. for 45 min. After this period, groups of 5 islets were incubated in 0.6 ml KRB with the addition of 1.5 or 12.0 mM glucose, with or without the addition of peptides for 60 min. At the end of the incubation period, aliquots of the medium were collected for insulin quantitation.

normal C57BL/6J mice = test: Induction of small β-cell clusters in normal C57BL/6J mice (islet size distribution); format: in vivo, mouse; settings: normal mice
Method: After a 1-week acclimation, C57BL/6J female mice were randomly divided into 4 groups. The two control groups received either 10 mL/kg sterile normal saline (n=4) or scrambled peptide (Peptide 3, 25 mg/kg) (n=5) via subcutaneous injection for 10 days. The other two groups received INGAP-PP (Peptide 1) or INGAP-PP analog Peptide 7 at a dose of 25 mg/kg per day respectively (n=7 per group) for the same period. Body weight and 6 hour fasting blood glucose were measured before treatment and after the last dosing of treatment. Plasma and pancreatic insulin were also measured at the end of the study. On day 11, the pancreas was removed from each animal, cleared of fat and lymph nodes, weighed, and fixed in 10% neutral buffered formalin (NBF) for no longer than 24 hours before processing for morphometric analysis.
Immunohistochemistry analysis was used to determine pancreatic islet size distribution.

## Ac-IGLHDPTQGTEPAGE-OH [Peptide 52, Ac-IGLHDPTQGTEPAGE-OH]
[1]
  stability in mouse plasma: exhibited good stability in mouse plasma and were significantly more stable than HIP
[2]
  stability in rat plasma: exhibited good stability in rat plasma and were significantly more stable than HIP

## Ac-IGLHDPTQGTEPAGE-NH2 [Peptide 62, Ac-IGLHDPTQGTEPAGE-NH2]
[2]
  stability in rat plasma: exhibited good stability in rat plasma and were significantly more stable than HIP

## Ac-IGLHDPTQGTEPNGE-OH [Peptide 54, Ac-IGLHDPTQGTEPNGE-OH]
[1]
  stability in mouse plasma: exhibited good stability in mouse plasma and were significantly more stable than HIP

## GLP-1: Glucagon like peptide-1, 100 nM, included as a positive control in GSIS (HAEGTFTSDVSSYLEGQAAKEFIAWLVKGR; ends and bridges not checked; UniProt P01275 98-127, looked up) [reference compound]
Pancreatic islets
  glucose-stimulated insulin release vs islets without peptide: released significantly more insulin than those cultured without the addition of peptides

## H-SHPNGSGTIGLHDPL-OH [Peptide 3, H-SHPNGSGTIGLHDPL-OH]
Normal C57BL/6J mice; 25 mg/kg per day sc for 10 days, compared to saline group
  effect on body weight, blood glucose, plasma insulin, pancreas insulin, pancreas weight: did not affect body weight, blood glucose, plasma insulin, pancreas insulin, or pancreas weight
Normal C57BL/6J mice; 25 mg/kg, 10 days
  all parameters measured, scrambled peptide versus normal saline: no difference

Reference: patent publication US9388215B2, “Compositions and methods of using islet neogenesis peptides and analogs thereof” (SHENZHEN HIGHTIDE BIOPHARMACEUTICAL, LTD., priority 2013, dated 2016)
